Assay [1] concerns primary human hepatocellular carcinoma (HCC) tumor. The experiment in a line: TCA: Compound B-1 with doxorubicin hydrochloride, primary HCC tumor. In kind it is cell-based. The conditions noted are these: tumor L090923, Liver. The protocol: (§1) In both studies, cell viability was assessed after 6 days in culture. Statistical analysis of the combination matrix was performed to assess whether synergy, additivity, or antagonism of the combination treatments were observed.
(§2) Materials: Primary patient samples (See Tables 16 and 17, below) were excised from mice when they reached 500 mg to 1000 mg in size and processed immediately, or after overnight shipment. Tumors were serially passaged by subcutaneous implantation of 50 mg to 150 mg fragments into the flanks of immunocompromised (nude) mice. Tumors were used within the first 5 or 7 passages.
Tumor Chemosensitivity Assay (TCA): Primary tumor samples were grown and serially passaged in immunocompromised mice. Tumors were mechanically dissociated into small fragments (1 mm to 2 mm) with scalpels in phosphate buffered saline (PBS or RPMI) and centrifuged at 200×g for 5 minutes at room temperature in 50 mL centrifuge tubes. Samples were resuspended in 10 mL of cell dissociation reagent and enzymatically digested with mechanical agitation for 1 to 3 hours at 37° C., 5% CO2 to a single cell suspension. Ten mL of complete RPMI-1640 media was added to the cell mixture and pipetted up and down 4 to 5 times. The mixture was then passed through a 70 μm or 100 μm mesh strainer to remove undigested tumor. […] Cells were diluted in Trypan blue, and viable cells that excluded the dye were counted. […]

Assay [2] concerns primary human tumors (NSCLC, SCLC). Briefly: TCA: Compound B-1 with etoposide, primary lung tumors. Format: cell-based. The protocol:
as §1, §2
Tumor Chemosensitivity Assay (TCA): Primary tumor samples were grown and serially passaged in immunocompromised mice. Tumors were mechanically dissociated into small fragments (1 mm to 2 mm) with scalpels in phosphate buffered saline (PBS or RPMI) and centrifuged at 200×g for 5 minutes at room temperature in 50 mL centrifuge tubes. Samples were resuspended in 10 mL of cell dissociation reagent and enzymatically digested with mechanical agitation for 1 to 3 hours at 37° C., 5% CO2 to a single cell suspension. Ten mL of complete RPMI-1640 media was added to the cell mixture and pipetted up and down 4 to 5 times. The mixture was then passed through a 70 μm or 100 μm mesh strainer to remove undigested tumor. The filtrate was then centrifuged 200×g for 5 minutes at room temperature and resuspended in 20 mL complete RPMI-1640. This cell suspension was slowly layered onto 20 mL of room temperature Histopaque and centrifuged at 400×g for 15 minutes at room temperature without a brake. The interface was transferred to a new 50 mL centrifuge tube and 15 mL of complete RPMI-1640 was added. This suspension was centrifuged at 200×g at room temperature, and the resulting pellet was resuspended in 10 mL of complete PC-1 media, except for pancreatic tumors in which case Pancreatic Medium was used. Cells were diluted in Trypan blue, and viable cells that excluded the dye were counted. Only the larger, tumor cells were included in the cell count. Cells were diluted in complete PC-1 or Pancreatic media, as appropriate for the cells, and were plated at 15,000 to 20,000 cells per well in 100-135 μL in ultra-low attachment U-bottom plates.
Compound Addition: For these studies, a 10 mM stock of the DNA-PK inhibitor (Compound B-1 or Compound B-2) was made in DMSO and used to add to cells from most tumors with HP D300 Digital Dispenser (Tecan US, Morrisville, NC, USA), or diluted into the appropriate media (PC-1 or pancreatic media) as a 5-10× stock and added to cells (OVX001 and ENX001, 005). PC-1, pancreatic media, and chemotherapeutics were also added so that final well volume was 150 μL. Doxorubicin was made as DMSO stock of 1 or 10 mM and added to cells for most tumors with HP D300 Digital Dispenser, or diluted into PC-1 as 5-10× stock and added to cells (OVX001 and ENX001, 005). Cisplatin (cis-diammine platinum(II), dichloride) was prepared fresh to 10 mM in warm (60° C.) distilled water and diluted in PC-1 as a 5-10× stock. […] Different starting concentrations, dose ranges, and number of doses were used for each experiment based on the response data available at the time.
For bleomycin experiments, combinations with Compound B-1 at all concentrations were run in triplicate. A 6×3 matrix was designed on one plate, consisting of a 2-point concentration range of 0.73 μM and 2.2 μM Compound B-1 plus no treatment control, in 3 columns each of 6 wells. Bleomycin (plus ‘no treatment’ control) was added to 9 wells in rows of this plate. Similar 6×3 matrices were set up for additional agents with different starting concentrations for compound dilutions. For cisplatin experiments the starting concentration was 30 μM which was diluted 1:3. […] For doxorubicin hydrochloride experiments the starting concentration was 5 μM doxorubicin which was diluted 1:3. For gemcitabine experiments the starting concentration was 5 μM gemcitabine which was diluted 1:3. […]

The test system of assay [3] is pKAP1 and pH2AX levels in A549 cells. Briefly: pH2AX and pKAP1 immunoblot, Compound B-1 and etoposide in A549 lung cells. In kind it is cell-based, human. Conditions: 3 μM Compound B-1 + 10 μM etoposide; at 8 h. (In western blotting, separated proteins are transferred to a membrane and probed.)
Method: The human cancer cell lines A549 (CCL-185), DU4475 (HTB-123), MDA-MB-436 (HTB-130), and MDA-MB-468 (HTB-132) were obtained from American Type Culture Collection (ATCC; Manassas, VA).
The A549 human lung cancer cell line was purchased from ATCC and was cultured in DMEM supplemented with 10% fetal bovine serum, 1× non-essential amino acids and 1× Penicillin/Streptomycin (complete medium). Cells were maintained at a subconfluent state by passaging every 2-3 days. Human breast cancer cells lines DU4475, MDA-MB-436, and MDA-MB-468 were purchased from ATCC and cultured in DMEM supplemented with 10% fetal bovine serum, 1× Glutamax and Penicillin/Streptomycin. Cells were maintained at a subconfluent state by passaging every 2-3 days.
Cells were then incubated for the indicated amount of time and harvested for analysis.
A 15-μL aliquot of each SDS-PAGE sample was loaded onto 12-lane 4 20% Tris-Glycine gels and the gels were run at 125v constant voltage until the dye front reached the bottom (approximately 2 h). Following electrophoresis, separated proteins in the gels were transferred to a nitrocellulose membrane. Transfer was carried out for 2 h at 1.5 A constant current in a cold room using a Hoefer transfer apparatus (Model TE42 or TE62, Hoefer Inc, Holliston, MA) according to manufacturer's instructions. […]
In assay [4] the test system is primary human endometrial tumors (dissociated cells). Briefly: Tumor Chemosensitivity Assay (TCA): Compound B-2 with doxorubicin, primary endometrial tumors, viability after 6 days, Bliss. Format: cell-based. The protocol: Specifically, one study described the combination of Compound B-2 and doxorubicin hydrochloride. In this study, a panel of primary human ovarian and endometrial tumors was dissociated and treated with Compound B-2 to determine the effectiveness of this selective DNA-PK inhibitor to enhance the activity of doxorubicin.
as §1, §2
Tumor Chemosensitivity Assay (TCA): Primary tumor samples were grown and serially passaged in immunocompromised mice. Tumors were mechanically dissociated into small fragments (1 mm to 2 mm) with scalpels in phosphate buffered saline (PBS or RPMI) and centrifuged at 200×g for 5 minutes at room temperature in 50 mL centrifuge tubes. […] Cells were diluted in Trypan blue, and viable cells that excluded the dye were counted. […]

Structures are written as SMILES.

`CNC(=O)c1ccnc2c([C@H](C)CNc3cc(-c4cnc(C)nc4)ncn3)cccc12` [Compound B-1]: the “Average Bliss score” value was determined as 4 in assay [1]; 15 in assay [2] (tumor LUX013, Lung (SCLC)); 16 in assay [2] (tumor LUX031, Lung (SCLC)); 19 in assay [2] (tumor OD26749, Lung (NSCLC)); 13 in assay [2] (tumor OD29498, Lung (NSCLC)). Besides, the “tumors that showed strong synergy” value in assay [2] was found to be 100%. The Synergy/Additivity/Antagonism entry in assay [2] (tumor LUX013, Lung (SCLC)) is on record as “Strongly Synergistic (greater than 10 are considered strongly synergistic)”; in assay [2] (tumor LUX031, Lung (SCLC)), “Strongly Synergistic (greater than 10 are considered strongly synergistic)”; in assay [2] (tumor OD26749, Lung (NSCLC)) it was “Strongly Synergistic (greater than 10 are considered strongly synergistic)”; in assay [2] (tumor OD29498, Lung (NSCLC)), “Strongly Synergistic (greater than 10 are considered strongly synergistic)”. In addition, the “pH2AX level, max increase as compared to etoposide treatment alone” value in assay [3] turned out to be 2 fold. Besides, the “pKAP1 level, max increase as compared to etoposide treatment alone” value in assay [3] came out at 7 fold.
For the molecule `[2H]c1nc(C)nc([2H])c1-c1cc(NC[C@@H](C)c2cccc3c(C(=O)NC)ccnc23)ncn1` [Compound B-2], the “Average Bliss score” value in assay [4] (tumor ENX001 (Endometrial)) is given as 6; in assay [4] (tumor ENX005 (Endometrial)), 21.

The record behind these values is US11980633B2, “Method for treating cancer using a combination of DNA-damaging agents and DNA-PK inhibitors” (Vertex Pharmaceuticals Incorporated, priority 2016, dated 2024).
